ChEMBL document CHEMBL4321788, “Rational Design of Multitarget-Directed Ligands: Strategies and Emerging Paradigms” (J Med Chem, 2019)

Columns and labels:
[1] = target: Histamine H2 receptor (Cavia porcellus) (UniProt P47747); experiment: Binding affinity to histamine H2 receptor in guinea pig right atrium
[2] = target: Histamine H1 receptor (Cavia porcellus) (UniProt P31389); experiment: Binding affinity to histamine H1 receptor in guinea pig ileum incubated up to 20 mins; assay type: tissue-based
[3] = target: Sodium-dependent serotonin transporter (Rattus norvegicus, UniProt P31652); experiment: Inhibition of rat synaptosome SERT
Rattus norvegicus = experiment: Antinociceptive activity in Wistar rat model of acetic-acid induced nociception pain assessed as reduction in writhes by measuring reduction in hind limb extension at 0.01 mmol/0.1kg, ip pretreated for 30 min followed by acetic-acid treatment and measured every 5 mins for 30 mins relative to control; assay type: functional; set-up: scale not given: the % may be the effect or the level left
Lipoxygenase = Lipoxygenase (Glycine max, UniProt Q39829); experiment: Inhibition of soya bean LOX assessed as reduction in formation of 13-hydroperoxylinoleic acid using sodium linoleate as substrate
Substance-K receptor = target: T1, Substance-K receptor (Homo sapiens, UniProt P21452); experiment: Displacement of [3H]NKA from human NK2 receptor expressed in CHO cells membranes; assay type: cell membranes
T1 sequence (P21452 whole entry): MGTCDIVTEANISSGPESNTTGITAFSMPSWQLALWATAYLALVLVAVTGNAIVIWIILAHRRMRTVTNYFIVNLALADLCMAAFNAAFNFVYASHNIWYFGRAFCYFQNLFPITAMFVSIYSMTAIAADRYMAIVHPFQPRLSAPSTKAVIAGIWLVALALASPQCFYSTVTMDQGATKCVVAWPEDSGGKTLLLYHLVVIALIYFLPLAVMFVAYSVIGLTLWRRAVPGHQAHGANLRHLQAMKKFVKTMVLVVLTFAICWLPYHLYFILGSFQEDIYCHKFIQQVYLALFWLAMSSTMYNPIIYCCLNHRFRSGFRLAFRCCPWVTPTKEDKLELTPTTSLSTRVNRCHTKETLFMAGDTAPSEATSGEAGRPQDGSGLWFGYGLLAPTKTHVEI

Neuromedin-K receptor = target: T2, Neuromedin-K receptor (Homo sapiens, UniProt P29371); experiment: Displacement of [125I][MePhe]NKB from human NK3 receptor expressed in CHO cells membranes; assay type: cell membranes
T2 sequence (P29371 whole entry): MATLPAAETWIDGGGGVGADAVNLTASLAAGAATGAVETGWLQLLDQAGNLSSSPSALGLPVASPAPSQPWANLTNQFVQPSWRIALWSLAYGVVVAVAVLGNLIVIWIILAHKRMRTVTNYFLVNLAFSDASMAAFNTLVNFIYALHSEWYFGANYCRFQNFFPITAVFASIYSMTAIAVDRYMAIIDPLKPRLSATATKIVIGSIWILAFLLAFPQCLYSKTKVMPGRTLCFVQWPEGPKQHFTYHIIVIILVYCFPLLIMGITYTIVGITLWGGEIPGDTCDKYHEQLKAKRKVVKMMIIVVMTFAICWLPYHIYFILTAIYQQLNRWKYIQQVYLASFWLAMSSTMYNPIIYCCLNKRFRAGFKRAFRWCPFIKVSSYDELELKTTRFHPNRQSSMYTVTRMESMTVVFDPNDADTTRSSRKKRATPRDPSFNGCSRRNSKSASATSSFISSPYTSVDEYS

Substance-P receptor = Substance-P receptor (Homo sapiens, UniProt P25103); experiment: Displacement of [3H]Sar SP from human NK1 receptor expressed in CHO cells membranes; assay type: cell membranes
Homo sapiens = organism: Homo sapiens; experiment: Antioxidant activity in human M17 cell lysate assessed as trolox equivalents of ABTS radical scavenging activity incubated up to 10 mins; assay type: functional, subcellular
[4] = target: Amyloid-beta precursor protein (Homo sapiens, UniProt P05067); experiment: Inhibition of self-induced aggregation of amyloid beta (1 to 42) (unknown origin) incubated for 24 hrs by TEM analysis
Histamine H3 receptor = Histamine H3 receptor (Homo sapiens, UniProt Q9Y5N1); experiment: Antagonist activity at human histamine H3 receptor stably expressed in HEK293 cells assessed as cAMP accumulation incubated for 60 mins by Eu-cAMP tracer based TR-FRET assay; assay type: functional, cell-based
Acetylcholinesterase = target: T3, Acetylcholinesterase (Mus musculus, UniProt P21836); experiment: Inhibition of mouse brain AChE
T3 sequence (P21836 whole entry): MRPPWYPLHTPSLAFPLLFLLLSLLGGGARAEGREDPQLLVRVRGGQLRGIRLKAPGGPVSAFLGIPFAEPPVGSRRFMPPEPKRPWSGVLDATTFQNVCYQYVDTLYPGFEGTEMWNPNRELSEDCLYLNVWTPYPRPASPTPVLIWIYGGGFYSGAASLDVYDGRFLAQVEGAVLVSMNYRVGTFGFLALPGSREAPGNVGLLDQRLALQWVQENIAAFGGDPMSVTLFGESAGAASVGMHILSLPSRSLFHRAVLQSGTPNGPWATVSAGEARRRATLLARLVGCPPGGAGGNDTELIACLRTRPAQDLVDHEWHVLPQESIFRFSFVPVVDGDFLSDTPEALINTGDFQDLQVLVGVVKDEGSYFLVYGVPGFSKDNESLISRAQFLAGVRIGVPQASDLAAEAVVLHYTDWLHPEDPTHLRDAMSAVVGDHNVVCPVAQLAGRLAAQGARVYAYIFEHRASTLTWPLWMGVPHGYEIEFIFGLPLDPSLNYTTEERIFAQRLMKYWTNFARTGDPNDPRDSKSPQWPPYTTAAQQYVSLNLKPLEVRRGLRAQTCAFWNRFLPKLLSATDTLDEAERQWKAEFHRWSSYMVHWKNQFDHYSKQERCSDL

[5] = Inhibition of ROS generation in human MC65 cells assessed as reduction in tetracycline removal-induced ROS level incubated for 48 hrs by DCFH-DA staining based flow cytometric analysis; assay type: functional, cell-based; details: MC65, 48 h
[6] = Neuroprotective activity against tetracycline removal-induced cytotoxicity in human MC65 cells assessed as increase in cell viability incubated for 72 hrs by MTT assay; assay type: functional, cell-based; details: MC65, 72 h

Histamine H2 receptor (Cavia porcellus), sequence (P47747 whole entry): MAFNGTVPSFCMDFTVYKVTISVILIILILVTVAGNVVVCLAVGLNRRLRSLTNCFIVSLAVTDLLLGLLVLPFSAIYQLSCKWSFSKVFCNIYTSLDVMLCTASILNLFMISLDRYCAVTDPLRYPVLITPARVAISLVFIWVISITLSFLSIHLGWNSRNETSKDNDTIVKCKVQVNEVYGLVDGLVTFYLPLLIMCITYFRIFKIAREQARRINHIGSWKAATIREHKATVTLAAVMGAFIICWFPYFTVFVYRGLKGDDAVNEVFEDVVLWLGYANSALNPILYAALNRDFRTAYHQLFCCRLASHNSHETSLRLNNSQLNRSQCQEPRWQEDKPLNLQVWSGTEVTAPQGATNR
Substance-P receptor, sequence (P25103 whole entry): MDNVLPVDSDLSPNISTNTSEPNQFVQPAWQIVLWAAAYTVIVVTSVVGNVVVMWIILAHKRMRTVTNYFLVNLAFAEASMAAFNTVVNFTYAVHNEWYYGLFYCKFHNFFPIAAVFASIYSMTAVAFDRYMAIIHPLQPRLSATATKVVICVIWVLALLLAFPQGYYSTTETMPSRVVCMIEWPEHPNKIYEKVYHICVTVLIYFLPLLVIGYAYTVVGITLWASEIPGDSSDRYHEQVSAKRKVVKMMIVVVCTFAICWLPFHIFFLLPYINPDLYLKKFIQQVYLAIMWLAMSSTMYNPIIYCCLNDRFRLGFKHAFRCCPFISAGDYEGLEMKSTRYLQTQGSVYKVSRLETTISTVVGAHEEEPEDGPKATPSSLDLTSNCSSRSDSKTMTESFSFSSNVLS
Amyloid-beta precursor protein, sequence (P05067 whole entry): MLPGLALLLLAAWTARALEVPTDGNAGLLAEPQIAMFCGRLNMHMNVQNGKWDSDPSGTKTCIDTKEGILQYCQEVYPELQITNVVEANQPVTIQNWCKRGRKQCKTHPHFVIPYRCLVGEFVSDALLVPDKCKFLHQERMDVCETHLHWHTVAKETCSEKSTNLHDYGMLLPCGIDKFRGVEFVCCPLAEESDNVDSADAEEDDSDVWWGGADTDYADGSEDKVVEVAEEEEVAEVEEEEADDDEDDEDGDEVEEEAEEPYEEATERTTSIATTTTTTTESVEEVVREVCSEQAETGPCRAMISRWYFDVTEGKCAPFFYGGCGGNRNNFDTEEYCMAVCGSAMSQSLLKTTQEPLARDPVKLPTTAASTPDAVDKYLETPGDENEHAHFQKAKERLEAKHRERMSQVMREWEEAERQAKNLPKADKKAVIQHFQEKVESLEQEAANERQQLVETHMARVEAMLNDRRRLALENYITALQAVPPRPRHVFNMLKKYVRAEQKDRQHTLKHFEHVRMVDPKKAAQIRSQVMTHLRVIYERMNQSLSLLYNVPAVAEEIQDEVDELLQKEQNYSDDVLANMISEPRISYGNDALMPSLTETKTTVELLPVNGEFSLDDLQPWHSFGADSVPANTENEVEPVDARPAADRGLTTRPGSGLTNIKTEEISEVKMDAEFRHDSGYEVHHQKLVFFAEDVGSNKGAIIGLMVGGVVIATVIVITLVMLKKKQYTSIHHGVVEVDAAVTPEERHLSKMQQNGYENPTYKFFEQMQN
Histamine H3 receptor, sequence (Q9Y5N1 whole entry): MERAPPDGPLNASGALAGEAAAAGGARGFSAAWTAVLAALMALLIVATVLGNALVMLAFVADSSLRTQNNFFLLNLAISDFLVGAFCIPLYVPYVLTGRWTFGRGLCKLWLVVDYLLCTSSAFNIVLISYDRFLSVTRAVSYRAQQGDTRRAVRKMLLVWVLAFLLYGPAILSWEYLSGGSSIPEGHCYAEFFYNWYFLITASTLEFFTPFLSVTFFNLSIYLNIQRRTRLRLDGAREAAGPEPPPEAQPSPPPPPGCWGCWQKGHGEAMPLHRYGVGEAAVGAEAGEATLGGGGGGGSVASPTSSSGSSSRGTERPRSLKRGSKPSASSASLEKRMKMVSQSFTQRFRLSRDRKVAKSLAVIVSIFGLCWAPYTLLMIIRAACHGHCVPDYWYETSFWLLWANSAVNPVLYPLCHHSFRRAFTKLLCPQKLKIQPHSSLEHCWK
Histamine H1 receptor (Cavia porcellus), sequence (P31389 whole entry): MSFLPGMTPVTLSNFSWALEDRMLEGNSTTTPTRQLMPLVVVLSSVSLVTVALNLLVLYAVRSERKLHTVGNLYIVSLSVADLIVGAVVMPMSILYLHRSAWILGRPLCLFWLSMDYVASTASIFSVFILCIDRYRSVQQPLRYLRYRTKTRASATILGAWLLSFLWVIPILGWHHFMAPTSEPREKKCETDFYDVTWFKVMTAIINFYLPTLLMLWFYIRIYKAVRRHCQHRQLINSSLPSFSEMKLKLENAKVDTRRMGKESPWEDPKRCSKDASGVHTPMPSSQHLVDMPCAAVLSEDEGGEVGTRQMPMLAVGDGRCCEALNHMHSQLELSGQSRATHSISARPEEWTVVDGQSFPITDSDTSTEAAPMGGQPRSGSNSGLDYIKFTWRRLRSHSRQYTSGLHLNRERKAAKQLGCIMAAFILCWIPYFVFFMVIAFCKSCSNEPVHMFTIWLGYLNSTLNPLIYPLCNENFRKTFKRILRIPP
Sodium-dependent serotonin transporter, sequence (P31652 whole entry): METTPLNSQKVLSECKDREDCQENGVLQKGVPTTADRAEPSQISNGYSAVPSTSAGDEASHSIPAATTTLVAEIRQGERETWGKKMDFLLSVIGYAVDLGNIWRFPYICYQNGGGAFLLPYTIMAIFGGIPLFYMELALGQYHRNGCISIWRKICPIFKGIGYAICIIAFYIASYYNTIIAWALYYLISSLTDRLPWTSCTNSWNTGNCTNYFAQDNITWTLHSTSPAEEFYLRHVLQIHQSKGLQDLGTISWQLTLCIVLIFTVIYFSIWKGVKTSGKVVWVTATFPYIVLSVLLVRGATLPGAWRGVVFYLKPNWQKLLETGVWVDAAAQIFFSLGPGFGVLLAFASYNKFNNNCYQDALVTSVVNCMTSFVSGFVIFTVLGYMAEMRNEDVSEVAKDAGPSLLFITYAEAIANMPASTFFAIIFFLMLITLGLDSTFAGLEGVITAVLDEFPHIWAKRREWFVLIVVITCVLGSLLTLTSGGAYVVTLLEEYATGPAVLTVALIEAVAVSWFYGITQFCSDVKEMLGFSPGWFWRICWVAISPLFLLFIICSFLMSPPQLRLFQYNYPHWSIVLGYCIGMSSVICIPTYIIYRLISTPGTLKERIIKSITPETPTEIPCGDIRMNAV

COc1ccc(CN(CCN(C)CCCCCCN/C(=N/C#N)NCCCOc2cccc(CN3CCCCC3)c2)c2ccccn2)cc1
pKb [1]: 6.43 | pKb [2]: 8.42

CCN(C)C(=O)Oc1cccc([C@H](C)N(C)C)c1 [RIVASTIGMINE]
IC50 [3]: > 1 µM

CC(=O)Nc1cccc(OC(=O)/C=C/c2cccc(Oc3ccccc3)c2)c1
Activity (Rattus norvegicus): 91 - 98.1% | IC50 (Lipoxygenase): 0.34 µM

CN(CCCNC(=O)NCCCOc1ccc(CN2CCCCC2)cc1)CCC(c1ccc(F)cc1)c1ccccn1 (stereo not drawn)
pKb [1]: 6.68

CNC(=O)C[C@H]1CCCN(C2CCN(CC[C@@H](/C(CN(C)C(=O)c3cc(Cl)cc(Cl)c3)=N/OC)c3ccc(Cl)c(Cl)c3)CC2)C1
Ki (Substance-K receptor): 0.0004 µM | Ki (Neuromedin-K receptor): 0.0003 µM | Ki (Substance-P receptor): 0.0013 µM

CN(C)c1ccc(O)c(CNc2cccc3ccc(CO)nc23)c1
Activity (Homo sapiens): 1.41

CCN(CC)CCCOc1ccc(-n2ccc(=O)c(O)c2C)cc1
IC50 [4]: 17.2 µM | IC50 (Histamine H3 receptor): 0.0128 µM

O=C(O)/C=C/c1cccc(Oc2ccccc2)c1
IC50 (Lipoxygenase): 89 µM

Cc1c(C)c2c(c(C)c1O)CCC(C)(C(=O)O)O2 (stereo not drawn)
Activity (Homo sapiens): 1

CC(=O)Nc1ccc(O)cc1 [ACETAMINOPHEN]
Activity (Rattus norvegicus): 66%

CNCCC(Oc1ccc(C(F)(F)F)cc1)c1ccccc1 (stereo not drawn) [FLUOXETINE]
IC50 (Acetylcholinesterase): > 10 µM

COc1ccc2[nH]cc(CCNC(=O)CC(=O)CCc3ccc(O)cc3)c2c1
IC50 [5]: 0.068 µM | EC50 [6]: 0.0276 µM
